Key:
[1] = test system: phosphorylation of Akt at serine 473; test: Western blot of Akt phosphorylation (S473) in RPEM cells stimulated with vitreous or PDGF; assay type: cell-based, human
Protocol: 1B. After growth factor-deprivation, the RPEM cells were pretreated with idelalisib at indicated concentrations, or its vehicle for 30 minutes, and then treated with normal rabbit vitreous diluted (1:2) in DMEM (RV), V: vehicle (0.1% dimethyl sulfoxide) or PDGF-B (10 ng/ml). After the treatment for 30 minutes at 37° C., their lysates were subjected to a western blot analysis using the indicated antibodies. This is representative of three independent experiments. Cells grown to 90% confluence in wells of 24-well plates were serum starved for 24 hours, and then treated with appropriated agents. After two washes with ice-cold phosphate buffered saline (PBS), the cells were lysed in 1× sample buffer diluted with protein extraction buffer (10 mM Tris-HCl, pH 7.4; 5 mM […] (EDTA), 50 mM NaCl, 50 mM NaF, 1% Triton X-100, 20 μg/ml aprotinin, 2 mM Na3VO4, 1 mM phenylmethylsulfonyl fluoride] from 5× sample buffer [25 mM EDTA, 10% sodium dodecyl sulfate (SDS), 500 mM dithiothreitol (DTT), 50% sucrose, 500 mM Tris.HCl (pH=6.8), 0.5% bromophenol blue). The samples were boiled for 5 minutes and then centrifuged for 5 minutes at 13,000×g, 4° C. […] Signal intensity was determined by densitometry using NIH imageJ software^24, 44, 50.

[2] = test system: RPEM cells; test: Cell migration (scratch) assay, RPEM cells with vitreous; assay type: cell-based, human; conditions: idelalisib 5 μM, 16 hours
Protocol: 3C. After the RPEM cells in a 12-well plate reached 90% confluence, the cultured wells were scratched with a 200 μl pipet tip and treated with RV supplemented with idelalisib (5 μM) or its vehicle. 16 hours later the pictures of the cells were taken and analyzed. A representative raw data of three experiments below the bar graphs is shown. Scale bar: 500 μm. RPEM cells in a 12-well plate were grown to near confluence, and then the wells with 90% confluent cells were scratched with 200 μl pipet tip. The cells were washed with PBS and treated with DMEM/F12 or RV (1:2 dilution in DMEM/F12) with or without idelalisib (5 μM). The scratched area was photographed to capture the initial width and photographed again 16 hours later. Analysis was conducted using Adobe Photoshop CS4 software. At least three independent experiments were performed.

[3] = test system: HRECs; test: VEGF-induced cell proliferation assay in HRECs; assay type: cell-based, human; conditions: VEGF 20 ng/ml, idelalisib 5 μM, 48 hours
Protocol: In a cell proliferation assay, HRECs cells were seeded into 24-well plates at a density of 30,000 cells/well in an endothelial growth medium kit. After attaching the plates, the cells were starved for growth factors for 7 hours, and then treated with VEGF (20 ng/ml) or VEGF plus idelalisib (5 μM). After 48 hours, the cells were trypsin detached and then counted in a hemocytometer under a light microscope as shown in FIG. 10A from three independent experiments^50, 61.

[4] = test system: RPEM cells; test: Cell proliferation assay, RPEM cells with vitreous; assay type: cell-based, human; conditions: idelalisib 5 μM, 48 hours
Protocol: 3A. RPEM cells were seeded into a 24-well plate at a density of 3×10^4 cells/well. After 8 hours the cells had attached, the medium was changed to either 0.5 ml DMEM (−) or RV supplemented with idelalisib (5 μM) or its vehicle. After treated for 48 hours, the cells were counted with a hemocytometer under a light microscope. RPEM cells were seeded into wells of a 24-well plate at a density of 3×10^4 cells/well in DMEM/F12 with 10% FBS. Following attachment, the cells were treated with DMEM/F12 or RV (1:2 dilution in DMEM/F12) with or without idelalisib (5 μM). On day 3, the cells were trypsin detached from the plates and counted in a hemocytometer. Each experimental condition was assayed in duplicate, and at least three independent experiments were performed^24, 44.

[5] = test system: PVR induced by RPEM cells; test: Experimental PVR in rabbits; assay type: in vivo, rabbit
Protocol: PVR was induced in the right eyes of two to three-month-old Dutch Belted pigmented rabbits. Briefly, one week after gas vitrectomy, rabbits were intravitreally injected with platelet-rich plasma (PRP, 0.1 ml) and RPEM cells (300,000 cells) supplemented with either idelalisib (10 μM) or its vehicle (0.1% DMSO). Subsequently, the rabbits were examined at the indicated times and PVR stage was evaluated using a double blind approach with an indirect ophthalmoscope through a 30D lens, and then the PVR status for each rabbit was plotted (4A). The […] values are indicated at the top of the figure after a Mann-Whitney analysis. Representative rabbits on day 28 were examined by eletroretinography (ERG) (4B), optical coherence tomography (OCT) (4C) and histological analysis by hematoxylin & eosin stain (4D). The numbers in C and D (0, 2, 3, and 5) denote PVR stages in the examined rabbits. Single arrow points to the retina and double arrows point to cellular fibrotic membranes (4C). Arrowhead and double arrows indicate cellular membranes (4D).
As previously described^1, 55, PVR was induced in right eyes of two-three months old Dutch Belted rabbits purchased from Covance (Denver, Pa.). Briefly, a gas vitrectomy was performed by injecting 0.1 ml of perfluoropropane (C3F8) (Alcon, Fort Worth, Tex.) into the vitreous cavity 4 mm posterior to the corneal limbus. […]

For CC[C@H](Nc1ncnc2[nH]cnc12)c1nc2cccc(F)c2c(=O)n1-c1ccccc1 [idelalisib], the “inhibition of vitreous-stimulated phosphorylation of Akt at serine 473” value ([1]; idelalisib 1.0 μM, 30 min pretreatment, rabbit vitreous 1:2 for 30 min) was “completely inhibited”, the “inhibition of PDGF-stimulated activation of Akt” value ([1]; idelalisib 10.0 μM (selective dose for PI3Kδ), PDGF-B 10 ng/ml) was “neither inhibited” and the “effect on vitreous-induced migration of RPEM cells” value [2] was “prevented”. The “effect on VEGF-stimulated cell proliferation of HRECs” value [3] was “completely blocked”, the “effect on vitreous-induced proliferation of RPEM cells” value [4] was “prevented” and the “rabbits developing to PVR stage 3” value ([5]; idelalisib 10 μM intravitreal with PRP and RPEM cells) was “one of nine”. The “effect on pathogenesis of PVR” value ([5]; idelalisib 10 μM intravitreal, days 7, 14, 21 and 28, Mann-Whitney) was “significantly suppressed”.

— patent US20200179392A1, “Idelalisib for Treating Proliferative Vitreoretinopathy and Abnormal Intraocular Neovascularization” (priority 2016, published 2020)
